This note sets out measurements from the METLIN SMRT retention time set (Domingo-Almenara et al. 2019).

The data set in a line: gradient 5% acetonitrile 3 min, to 50% in 2 min, to 85% in 15 min, held 3 min, 100 µL/min. The settings on record: column: Zorbax Extend-C18 2.1 x 50 mm; eluents: water / acetonitrile, 0.1% formic acid. The gist of the method: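 Mixtures of ~100 pure standards were chromatographed on a Zorbax Extend-C18 column (2.1 × 50 mm, 1.8 μm) at 100 μL/min using water and acetonitrile, each with 0.1% formic acid. Detection used a quadrupole time-of-flight mass spectrometer in positive and negative ionization mode, and data collection spanned 3 months. Retention time was obtained from adduct peaks picked computationally and each checked manually.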
`CN1CCN(C(CNC(=O)Cc2cccc3ccccc23)c2ccsc2)CC1` (centres undefined) had an RP-LC retention time of 564 s. In turn, `CCc1cc(C(=O)Nc2ccc(OC)cc2)nc2cc(-c3ccccn3)nn12` returned an RP-LC retention time of 1000 s. For `CCOc1cc(C2c3c(n[nH]c3C)C(=O)N2C)ccc1O` (centres undefined) the value was 626 s; for `Cc1ccc(NC(=O)CN(C)S(=O)(=O)c2cc(C(=O)N3CCC(C)CC3)n(C)c2)cc1Cl`, 998 s; for `O=C(NCCCN1CCCC1)c1ccc2nc(Cc3ccccc3)oc2c1`, 642 s. With `CC(C)(C)c1ccc(OCCCC(=O)Nc2nc(-c3ccccc3)cs2)cc1` the figure was 1300 s; with `O=C(Cc1ccc(Cl)cc1)N1CCCn2nc(-c3ccc(Cl)cc3)cc2C1`, 1050 s; with `O=C(CC1CCCCC1)NC1CCCN(c2ccc(=O)n(CC3CC3)n2)C1` (centres undefined), 836 s. With `Cc1nn(CCCC(=O)Nc2cccc(F)c2)c(=O)c2nn(-c3ccccc3)c(C)c12` the figure was 709 s. Take `COc1ccc(NC(=O)N2C[C@@H]3C[C@H]2C[C@@H]3NC(=O)c2ccccc2)c(OC)c1`: the RP-LC retention time came to 647 s. With `COc1ccc(CNC(=O)Cn2nc(C)c3sc(-c4ccccc4)nc3c2=O)cc1` the figure was 846 s; with `COc1ccc2c(c1)sc1ncc(C(=O)N3CCN(c4ccccn4)CC3)c(=O)n12`, 589 s; with `COc1ccc(OC)c(NC(=O)N2CCN(Cc3nc4cc(C)ccc4o3)CC2)c1`, 721 s.

Compound `CCCCOC(=O)C1=CN(Cc2ccccc2)S(=O)(=O)N=C1C` displayed an RP-LC retention time of 1080 s. For `CCOc1ccccc1CNC(=O)C1CCCN(c2nccnc2Sc2ccccc2)C1` (centres undefined) the value was 1110 s.

Compound `COc1ccc(NC(=O)Cn2c(N3CCCCC3)nc(C)cc2=O)cc1F` displayed an RP-LC retention time of 717 s. For `O=C(Cn1cnc2c(sc3nc(-c4ccccc4)ccc32)c1=O)NCc1ccc(F)cc1` the value was 982 s. For `CCOC(=O)C(CC)Sc1ccc(NC(=O)c2cccs2)nn1` (centres undefined) the value was 908 s; for `COc1cc(C2C(C(=O)N3CCOCC3)=C(C)NC3=C2C(=O)CCC3)cc(Br)c1O` (centres undefined), 607 s. For `COc1cccc(C2Cn3nnc(-c4nc(-c5ccc(OC)c(F)c5)no4)c3CO2)c1` (centres undefined) the value was 1140 s; for `Cn1cc(-c2cc3n(n2)CCC(=O)N3CCCC(=O)NCCCN2CCCC2)c2ccccc21`, 621 s. Turning to `O=C(Cn1nc(-n2cccn2)ccc1=O)Nc1cc(C(F)(F)F)ccc1Cl`, the RP-LC retention time was determined as 730 s. For the compound `Cn1c(C(=O)N2CCN(c3cccc(Cl)c3)CC2)cc2c(=O)oc3ccccc3c21`, the RP-LC retention time is 1030 s.

For `CC(C)Oc1ccc(CN2CCn3c(nn(CC4CC4)c3=O)C2)cc1`, the RP-LC retention time amounted to 761 s. Compound `Cc1ncc2c(n1)CCN(C(=O)c1ccccc1Br)C2` had an RP-LC retention time of 655 s. With `O=C(NCC1(c2cccs2)CCOCC1)C(=O)NC1CCCC1`, the RP-LC retention time turned out to be 775 s. With `O=C(NCCN1CCOCC1)c1nc2ccccn2c1-c1ccc(Cl)cc1` the figure was 647 s; with `COc1ccc(-n2nc3c(N4CCCC(C(=O)NC5CCCCC5)C4)nnc(C)c3c2C)cc1` (centres undefined), 732 s. With `CCCN1C(=O)C(NC(=O)CCc2ccccc2)(C(F)(F)F)C(C(=O)OC)=C1C` (centres undefined) the figure was 916 s; with `COc1ccc(-n2ncc3c(=O)n(Cc4nc(-c5cccc(C(F)(F)F)c5)no4)cnc32)cc1`, 1130 s. `Cc1cc(C)cc(NC(=O)Cn2cccc(-c3nc(-c4ccc(Br)cc4)no3)c2=O)c1` showed an RP-LC retention time of 1060 s. With `CCOCc1nc(C2CCCN2S(=O)(=O)c2c(C)nn(C)c2C)no1` (centres undefined) the figure was 691 s. `CCc1noc(C2(NC(=O)c3nn(C)c4ccccc34)CCCCC2)n1` returned an RP-LC retention time of 1010 s. With `Cc1cccc(-n2cc(C(=O)OCc3ccccn3)c3ccccc3c2=O)c1` the figure was 932 s. With `CC(C)Cn1cc(S(=O)(=O)N2CCN(c3ccccc3F)CC2)c2cccnc21` the figure was 1140 s. In turn, `CC(C)c1ccc(N2C(=O)CN(S(C)(=O)=O)CC2(C)C(=O)NCc2ccc(F)cc2)cc1` (centres undefined) registered an RP-LC retention time of 836 s. For `O=C(c1ccsc1)N1CCCC1c1nc(-c2ccc(F)cc2F)no1` (centres undefined), the RP-LC retention time was determined as 907 s. Regarding `Cc1nc2c(n1C)CN(C(=O)c1ccc(Cl)s1)CC2`, the RP-LC retention time came out at 574 s.

For `CS(=O)(=O)N1CCC(C(=O)Nc2cc(N3CCOCC3)ncn2)CC1`, the RP-LC retention time turned out to be 563 s. For `O=C(Nc1ccc2c(c1)OCCO2)c1cccc(-c2cnc(N3CCCC3)nc2)c1` the value was 845 s. Compound `COC(=O)Cn1nc(-c2nc(-c3ccc(C)cc3)no2)ccc1=O` came in with an RP-LC retention time of 928 s.

With `CCc1nnc2nc(N3CCN(C(=O)COc4ccc(F)cc4)CC3)cc(C)n12`, the RP-LC retention time is 621 s. In turn, `CCOc1ccc(NC(=O)N2CCC3(CC2)NC(=O)c2ccccc2O3)cc1` registered an RP-LC retention time of 739 s. Consider `Cc1c(Cl)cccc1S(=O)(=O)N1CCCN(c2ccc(=O)n(-c3ccccc3)n2)CC1`, for which the RP-LC retention time worked out at 944 s. With `CSc1ccc(-c2nc3cnccn3c2Nc2ccc(C(N)=O)cc2)cc1` the figure was 658 s; with `CCC(C)NC(=O)C1CCN(S(=O)(=O)c2c(C)nn(-c3ccc(F)cc3)c2C)CC1` (centres undefined), 842 s; with `c1ccc(-c2noc(-c3ccc(OC4CNC4)cc3)n2)cc1`, 674 s.

With `CCN1CCN(C(=O)Cn2c(=O)c3cnc(-c4ccc(Cl)cc4)nc3n(CC)c2=O)CC1`, the RP-LC retention time was 716 s. For `COc1cccc(C(=O)Nc2nnc(C3CC(=O)N(c4ccccc4)C3)o2)c1` (centres undefined) the value was 690 s; for `CCN(CC)CCn1c(NCc2ccc(Br)cc2)nc2ccccc21`, 581 s.

The compound `CCN1C(=O)c2cccnc2Sc2cc(CNC(=O)c3ccc(NC(C)=O)cc3)ccc21` showed an RP-LC retention time of 654 s. For `COc1ccc(-c2cc3c(=O)n(Cc4ccc(C)cc4C)ccn3n2)cc1OC` the value was 1020 s. For `COc1ccc(OC)c(NC(=O)NCCc2nc3cccnc3n2C2CCCC2)c1` the value was 706 s; for `c1ccc(-n2cnnc2C2CCCCN2Cc2ccncc2)cc1` (centres undefined), 584 s. For `CCN1C(=O)C2(CCN(S(=O)(=O)c3ccc(C(F)(F)F)cc3)CC2)c2ccccc21` the value was 1130 s; for `COCC1CN(C)CC12CCN(S(=O)(=O)c1cc(F)ccc1C)CC2` (centres undefined), 661 s; for `CCNc1nc(NC(C)(C)C)nc(-n2cnc(SC)n2)n1`, 873 s. `Cc1noc(-c2ccc(OC3CN(C(=O)NCc4ccccc4)C3)cc2)n1` came in with an RP-LC retention time of 836 s. For `Cn1c(CN2CCN(C(=O)COc3ccc(F)cc3)CC2)nc2ccccc21` the value was 581 s.
